Target: T1, Stat5a (Homo sapiens, UniProt P42229)
T1 sequence (P42229 1-794): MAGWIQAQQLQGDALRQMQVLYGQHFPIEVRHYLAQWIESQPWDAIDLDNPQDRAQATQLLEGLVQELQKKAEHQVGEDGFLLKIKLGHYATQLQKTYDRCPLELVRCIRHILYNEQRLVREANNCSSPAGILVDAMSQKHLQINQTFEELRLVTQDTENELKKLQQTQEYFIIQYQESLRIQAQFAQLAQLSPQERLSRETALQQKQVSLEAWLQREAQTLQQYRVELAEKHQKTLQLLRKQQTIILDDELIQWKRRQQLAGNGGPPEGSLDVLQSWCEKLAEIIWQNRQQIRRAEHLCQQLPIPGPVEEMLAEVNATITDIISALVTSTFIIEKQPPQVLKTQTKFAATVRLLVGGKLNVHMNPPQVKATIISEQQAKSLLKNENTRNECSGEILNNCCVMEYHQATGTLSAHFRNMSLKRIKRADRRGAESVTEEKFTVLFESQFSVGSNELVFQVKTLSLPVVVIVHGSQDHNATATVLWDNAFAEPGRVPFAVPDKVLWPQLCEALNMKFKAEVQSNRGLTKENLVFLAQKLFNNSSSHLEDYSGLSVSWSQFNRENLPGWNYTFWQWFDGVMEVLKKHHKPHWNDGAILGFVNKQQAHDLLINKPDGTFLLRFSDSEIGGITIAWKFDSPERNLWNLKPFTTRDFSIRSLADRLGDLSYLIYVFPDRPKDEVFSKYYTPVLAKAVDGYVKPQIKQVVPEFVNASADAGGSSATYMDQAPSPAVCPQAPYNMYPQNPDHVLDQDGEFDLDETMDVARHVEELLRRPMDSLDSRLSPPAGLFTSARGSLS
Experiment: Prolactin-induced Stat5a phosphorylation in CWR22Rv1 prostate cells (immunoprecipitation/Western blot)
Assay type: cell-based
Settings: CWR22Rv1, 12, 25, 50 and 100 μM for 2 h, then 10 nM Prl 30 minutes
Protocol: CWR22Rv1 cells were starved for 24 h in serum-free medium, treated with Compound 2 at 12, 25, 50 and 100 μM concentrations for 2 h, followed by stimulation with 10 nM Prl for 30 minutes. Stat5a was immunoprecipitated with anti-Stat5a pAb (4 gg/ml, Millipore, Billerica, Mass.). Immunoprecipitates of CWR22Rv1 cells were blotted with anti-phospho-Stat5ab mAb (1 μg/ml, Advantex BioReagents, Conroe, Tex.) or anti-Stat5a/b mAb (BD Biosciences, San Jose, Calif.). Whole cell lysates were immunoblotted with anti-actin pAb for loading control.
The protocol in more detail comprised the following. Cell pellets were solubilized in lysis buffer [10 mM Tris-HCl (pH 7.6), 5 mM EDTA, 50 mM sodium chloride, 30 mM sodium pyrophosphate, 50 mM sodium fluoride, 1 mM sodium orthovanadate, 1% Triton X-100, 1 mM phenylmethylsulfonyl fluoride, 5 μg/ml aprotinin, 1 μg/ml pepstatin A, and 2 μg/ml leupeptin], rotated end-over-end at 4° C. for 60 min, and insoluble material was pelleted at 12,000×g for 30 min at 4° C. The protein concentrations of clarified cell lysates were determined by simplified Bradford method (Bio-Rad Laboratories, Hercules, Calif.). Stat5a was immunoprecipitated from whole cell lysates with anti-Stat5a (4 μl/ml; Millipore, Billerica, Mass.) pAb. Antibody was captured by incubation for 60 min with protein A-Sepharose beads (Amersham Pharmacia Biotech, Piscataway, N.J.). […]

`OC[C@H]1O[C@@H](n2cnc3c(NNc4ccccc4)ncnc32)[C@H](O)[C@@H]1O` [Compound 2, (2R,3S,4R,5R)-2-(hydroxymethyl)-5-(6-(2-phenylhydrazinyl)-9H-purin-9-yl)tetrahydrofuran-3,4-diol] was tested, and the “effect on Stat5a phosphorylation” value was “inhibits Stat5a phosphorylation”.

From patent US20150209379A1, “TREATMENT OF PROSTATE CANCER AND HEMATOLOGIC NEOPLASMS” (THOMAS JEFFERSON UNIVERSITY, priority 2012, published 2015)
